In PubChem BioAssay AID1963978 (Molecular Pharmacology Branch, DTP, NCI, 2024):

Tested on: 616215-338-R-J1-PDC spheroids with HUVEC/MSC, viability
Experiment: Anticancer human tumor 616215-338-R-J1-PDC patient-derived colon adenocarcinoma cell line growth inhibition [PI3K]
Settings: for IC50: curve of first compound; for viability, T/C: stronger effect = lower value
In short: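 Tumor cells were combined with HUVEC and MSCs into spheroids, then dosed with PI3K-inhibitor combinations over half-log ranges capped near clinical Cmax or 10 microM.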

[1] = second compound 0.00316 µM, first compound 0.000316 µM
[2] = second compound 0.00316 µM, first compound 0.001 µM
[3] = second compound 0.00316 µM, first compound 0.00316 µM
[4] = second compound 0.00316 µM, first compound 0.01 µM
[5] = second compound 0.00316 µM, first compound 0.0316 µM
[6] = second compound 0.00316 µM, first compound 0.1 µM
[7] = second compound 0.01 µM, first compound 0.000316 µM
[8] = second compound 0.01 µM, first compound 0.001 µM
[9] = second compound 0.01 µM, first compound 0.00316 µM
[10] = second compound 0.01 µM, first compound 0.01 µM
[11] = second compound 0.01 µM, first compound 0.0316 µM
[12] = second compound 0.01 µM, first compound 0.1 µM
[13] = second compound 0.0316 µM, first compound 0.000316 µM
[14] = second compound 0.0316 µM, first compound 0.001 µM
[15] = second compound 0.0316 µM, first compound 0.00316 µM
[16] = second compound 0.0316 µM, first compound 0.01 µM
[17] = second compound 0.0316 µM, first compound 0.0316 µM
[18] = second compound 0.0316 µM, first compound 0.1 µM
[19] = second compound 0.1 µM, first compound 0.000316 µM
[20] = second compound 0.1 µM, first compound 0.001 µM
[21] = second compound 0.1 µM, first compound 0.00316 µM
[22] = second compound 0.1 µM, first compound 0.01 µM
[23] = second compound 0.1 µM, first compound 0.0316 µM
[24] = second compound 0.1 µM, first compound 0.1 µM
[25] = second compound 0.316 µM, first compound 0.000316 µM
[26] = second compound 0.316 µM, first compound 0.001 µM
[27] = second compound 0.316 µM, first compound 0.00316 µM
[28] = second compound 0.316 µM, first compound 0.01 µM
[29] = second compound 0.316 µM, first compound 0.0316 µM
[30] = second compound 0.316 µM, first compound 0.1 µM
[31] = second compound 1 µM, first compound 0.000316 µM
[32] = second compound 1 µM, first compound 0.001 µM
[33] = second compound 1 µM, first compound 0.00316 µM
[34] = second compound 1 µM, first compound 0.01 µM
[35] = second compound 1 µM, first compound 0.0316 µM
[36] = second compound 1 µM, first compound 0.1 µM
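Note: spheroids exposed to agents for seven days before the viability read.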

In the case of `CC(=O)c1c(C)c2cnc(Nc3ccc(N4CCNCC4)cn3)nc2n(C2CCCC2)c1=O` + COc1c(OCCCN2CCOCC2)ccc2c3n(c(=NC(=O)c4cnc(N)nc4)nc12)CCN3, the IC50 (second compound 0.00316 µM) is reported as greater than 100 nM, the IC50 (second compound 0.01 µM) is reported as greater than 100 nM and the IC50 (second compound 0.0316 µM) is reported as greater than 100 nM. The IC50 (second compound 0.1 µM) was greater than 100 nM, the IC50 (second compound 0.316 µM) was less than 0.316 nM and the IC50 (second compound 1 µM) was less than 0.316 nM. For the same compound, the viability, T/C [1] was 91%, the viability, T/C [2] was 98.3% and the viability, T/C [3] was 103%. For the same compound, the viability, T/C [4] was 101%, the viability, T/C [5] was 88.8% and the viability, T/C [6] was 94.7%. For the same compound, the viability, T/C [7] was 93.4%, the viability, T/C [8] was 95.9% and the viability, T/C [9] was 90.7%. The viability, T/C [10] was 99.3%, the viability, T/C [11] was 101% and the viability, T/C [12] was 116%. For the same compound, the viability, T/C [13] was 103%, the viability, T/C [14] was 100% and the viability, T/C [15] was 99.8%. The viability, T/C [16] was 99.4%, the viability, T/C [17] was 97.9% and the viability, T/C [18] was 90.7%. The viability, T/C [19] was 93.1%, the viability, T/C [20] was 92.7% and the viability, T/C [21] was 96.1%. For the same compound, the viability, T/C [22] was 85.4%, the viability, T/C [23] was 79.4% and the viability, T/C [24] was 58.7%. The viability, T/C [25] was 48.4%, the viability, T/C [26] was 36.3% and the viability, T/C [27] was 40.9%. It also gave a viability, T/C [28] of 31.2%, a viability, T/C [29] of 37.7% and a viability, T/C [30] of 23.4%. For the same compound, the viability, T/C [31] was 28.6%, the viability, T/C [32] was 20.7% and the viability, T/C [33] was 18.9%. For the same compound, the viability, T/C [34] was 16.8%, the viability, T/C [35] was 18.8% and the viability, T/C [36] was 18.4%.

Compound `CC(C)n1nc(-c2ccc3oc(N)nc3c2)c2c(N)ncnc21` + COc1c(OCCCN2CCOCC2)ccc2c3n(c(=NC(=O)c4cnc(N)nc4)nc12)CCN3 has an IC50 (second compound 0.00316 µM) greater than 100 nM, an IC50 (second compound 0.01 µM) greater than 100 nM and an IC50 (second compound 0.0316 µM) of 80.3 nM. It also gave an IC50 (second compound 0.1 µM) of 26.2 nM, an IC50 (second compound 0.316 µM) of less than 0.316 nM and an IC50 (second compound 1 µM) of less than 0.316 nM. For the same compound, the viability, T/C [1] was 104%, the viability, T/C [2] was 109% and the viability, T/C [3] was 97.4%. For the same compound, the viability, T/C [4] was 105%, the viability, T/C [5] was 116% and the viability, T/C [6] was 65.6%. For the same compound, the viability, T/C [7] was 104%, the viability, T/C [8] was 100% and the viability, T/C [9] was 103%. The viability, T/C [10] was 108%, the viability, T/C [11] was 122% and the viability, T/C [12] was 67.2%. For the same compound, the viability, T/C [13] was 106%, the viability, T/C [14] was 99.2% and the viability, T/C [15] was 117%. The viability, T/C [16] was 117%, the viability, T/C [17] was 97.3% and the viability, T/C [18] was 39%. The viability, T/C [19] was 96.2%, the viability, T/C [20] was 102% and the viability, T/C [21] was 88.9%. The viability, T/C [22] was 68.7%, the viability, T/C [23] was 47.7% and the viability, T/C [24] was 30.1%. It also gave a viability, T/C [25] of 37.9%, a viability, T/C [26] of 42.1% and a viability, T/C [27] of 34.9%. For the same compound, the viability, T/C [28] was 45.2%, the viability, T/C [29] was 35.5% and the viability, T/C [30] was 22.1%. It also gave a viability, T/C [31] of 24.3%, a viability, T/C [32] of 29.1% and a viability, T/C [33] of 25.1%. For the same compound, the viability, T/C [34] was 27.8%, the viability, T/C [35] was 30.1% and the viability, T/C [36] was 13.2%.

`CCCS(=O)(=O)Nc1ccc(F)c(C(=O)c2c[nH]c3ncc(-c4ccc(Cl)cc4)cc23)c1F` + COc1c(OCCCN2CCOCC2)ccc2c3n(c(=NC(=O)c4cnc(N)nc4)nc12)CCN3 gave an IC50 (second compound 0.00316 µM) of 4830 nM, an IC50 (second compound 0.01 µM) of 5110 nM and an IC50 (second compound 0.0316 µM) of 4930 nM. For the same compound, the IC50 (second compound 0.1 µM) was 2860 nM, the IC50 (second compound 0.316 µM) was less than 31.6 nM and the IC50 (second compound 1 µM) was less than 31.6 nM. It also gave a viability, T/C [5] of 91.8%, a viability, T/C [6] of 96.1% and a viability, T/C (second compound 0.00316 µM, first compound 0.316 µM) of 99%. For the same compound, the viability, T/C (second compound 0.00316 µM, first compound 1 µM) was 97.9%, the viability, T/C (second compound 0.00316 µM, first compound 3.16 µM) was 77.9% and the viability, T/C (second compound 0.00316 µM, first compound 10 µM) was 2.29%. It also gave a viability, T/C [11] of 105%, a viability, T/C [12] of 104% and a viability, T/C (second compound 0.01 µM, first compound 0.316 µM) of 98.3%. It also gave a viability, T/C (second compound 0.01 µM, first compound 1 µM) of 94.7%, a viability, T/C (second compound 0.01 µM, first compound 3.16 µM) of 84.9% and a viability, T/C (second compound 0.01 µM, first compound 10 µM) of 3.47%. The viability, T/C [17] was 105%, the viability, T/C [18] was 107% and the viability, T/C (second compound 0.0316 µM, first compound 0.316 µM) was 120%. For the same compound, the viability, T/C (second compound 0.0316 µM, first compound 1 µM) was 106%, the viability, T/C (second compound 0.0316 µM, first compound 3.16 µM) was 77% and the viability, T/C (second compound 0.0316 µM, first compound 10 µM) was 7.26%. For the same compound, the viability, T/C [23] was 99%, the viability, T/C [24] was 92.8% and the viability, T/C (second compound 0.1 µM, first compound 0.316 µM) was 87.3%. It also gave a viability, T/C (second compound 0.1 µM, first compound 1 µM) of 93.7%, a viability, T/C (second compound 0.1 µM, first compound 3.16 µM) of 45.9% and a viability, T/C (second compound 0.1 µM, first compound 10 µM) of 9.33%. For the same compound, the viability, T/C [29] was 53.8%, the viability, T/C [30] was 35.7% and the viability, T/C (second compound 0.316 µM, first compound 0.316 µM) was 38.9%. The viability, T/C (second compound 0.316 µM, first compound 1 µM) was 38.5%, the viability, T/C (second compound 0.316 µM, first compound 3.16 µM) was 27% and the viability, T/C (second compound 0.316 µM, first compound 10 µM) was 5.18%. It also gave a viability, T/C [35] of 23.3%, a viability, T/C [36] of 29.3% and a viability, T/C (second compound 1 µM, first compound 0.316 µM) of 21.3%. It also gave a viability, T/C (second compound 1 µM, first compound 1 µM) of 20.1%, a viability, T/C (second compound 1 µM, first compound 3.16 µM) of 18.7% and a viability, T/C (second compound 1 µM, first compound 10 µM) of 3.73%.
